# Experimental data from US11912660B2, “S6K1 protein kinase inhibitors as cancer therapeutics” (Xavier University of Louisiana, priority 2020, dated 2024).
# Several values for one entry are separate records, joined by “and”; a condition that tells them apart may be missing. Identical values can stand only once. Like-named read-outs stand apart in the source and are kept apart here.
# Legend:
# Experiment in all cases: SelectScreen kinase panel screening
# Assay type in all cases: biochemical
# [1] = molecular target: CDK2/cyclin A (Homo sapiens (Human), UniProt P24941)
# Description: (§1) The complete list of the kinases given in Table 1 and their details can be found on the ThermoFisher website for Biochemical Kinase assays (thermofisher.com/us/en/home/industrial/pharma-biopharma/drug-discovery-development/target-and-lead-identification-and-validation/kinasebiology.html).
# [2] = molecular target: IGF1R (Homo sapiens (Human), UniProt P08069)
# Description: as §1
# [3] = molecular target: NEK2 (Homo sapiens (Human), UniProt P51955)
# NEK2, sequence (P51955 whole entry): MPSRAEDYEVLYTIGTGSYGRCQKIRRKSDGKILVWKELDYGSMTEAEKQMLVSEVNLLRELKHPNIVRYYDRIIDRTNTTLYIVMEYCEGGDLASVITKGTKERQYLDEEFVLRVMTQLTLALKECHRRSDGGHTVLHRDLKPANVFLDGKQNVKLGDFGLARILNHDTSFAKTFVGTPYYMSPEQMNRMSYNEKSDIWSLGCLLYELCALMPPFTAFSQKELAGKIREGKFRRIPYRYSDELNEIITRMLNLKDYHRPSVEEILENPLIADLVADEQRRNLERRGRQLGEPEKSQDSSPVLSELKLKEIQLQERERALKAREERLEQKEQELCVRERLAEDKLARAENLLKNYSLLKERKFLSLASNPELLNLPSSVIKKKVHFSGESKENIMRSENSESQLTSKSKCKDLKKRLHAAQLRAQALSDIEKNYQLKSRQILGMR
# Description: as §1
# [4] = molecular target: FLT3 (Homo sapiens (Human), UniProt P36888)
# Description: as §1
# [5] = molecular target: FER (Homo sapiens (Human), UniProt P16591)
# Description: as §1
# [6] = molecular target: BRAF (Homo sapiens (Human), UniProt P15056)
# Description: as §1
# [7] = molecular target: PIM1 (Homo sapiens (Human), UniProt P11309)
# PIM1, sequence (P11309 whole entry): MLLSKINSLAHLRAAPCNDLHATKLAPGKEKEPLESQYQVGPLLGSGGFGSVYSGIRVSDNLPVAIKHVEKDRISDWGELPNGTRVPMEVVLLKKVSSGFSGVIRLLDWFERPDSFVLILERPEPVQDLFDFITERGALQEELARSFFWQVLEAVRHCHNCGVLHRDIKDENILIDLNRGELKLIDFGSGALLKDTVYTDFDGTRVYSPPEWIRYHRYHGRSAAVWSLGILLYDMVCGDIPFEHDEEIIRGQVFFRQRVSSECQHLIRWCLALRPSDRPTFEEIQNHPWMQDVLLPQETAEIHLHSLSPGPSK
# Description: as §1
# [8] = molecular target: CHEK1 (CHK1) (Homo sapiens (Human), UniProt O14757)
# Description: as §1
# [9] = molecular target: BTK (Homo sapiens (Human), UniProt Q06187)
# Description: as §1
# [10] = molecular target: CSNK1E (CK1 epsilon) (Homo sapiens (Human), UniProt P49674)
# Description: as §1
# [11] = molecular target: SRC (Homo sapiens (Human), UniProt P12931)
# Description: as §1
# [12] = molecular target: FRAP1 (mTOR) (Homo sapiens (Human), UniProt P42345)
# Description: as §1
# [13] = molecular target: KIT (Homo sapiens (Human), UniProt P10721)
# Description: as §1
# [14] = molecular target: JAK2 (Homo sapiens (Human), UniProt O60674)
# JAK2, sequence (O60674 whole entry): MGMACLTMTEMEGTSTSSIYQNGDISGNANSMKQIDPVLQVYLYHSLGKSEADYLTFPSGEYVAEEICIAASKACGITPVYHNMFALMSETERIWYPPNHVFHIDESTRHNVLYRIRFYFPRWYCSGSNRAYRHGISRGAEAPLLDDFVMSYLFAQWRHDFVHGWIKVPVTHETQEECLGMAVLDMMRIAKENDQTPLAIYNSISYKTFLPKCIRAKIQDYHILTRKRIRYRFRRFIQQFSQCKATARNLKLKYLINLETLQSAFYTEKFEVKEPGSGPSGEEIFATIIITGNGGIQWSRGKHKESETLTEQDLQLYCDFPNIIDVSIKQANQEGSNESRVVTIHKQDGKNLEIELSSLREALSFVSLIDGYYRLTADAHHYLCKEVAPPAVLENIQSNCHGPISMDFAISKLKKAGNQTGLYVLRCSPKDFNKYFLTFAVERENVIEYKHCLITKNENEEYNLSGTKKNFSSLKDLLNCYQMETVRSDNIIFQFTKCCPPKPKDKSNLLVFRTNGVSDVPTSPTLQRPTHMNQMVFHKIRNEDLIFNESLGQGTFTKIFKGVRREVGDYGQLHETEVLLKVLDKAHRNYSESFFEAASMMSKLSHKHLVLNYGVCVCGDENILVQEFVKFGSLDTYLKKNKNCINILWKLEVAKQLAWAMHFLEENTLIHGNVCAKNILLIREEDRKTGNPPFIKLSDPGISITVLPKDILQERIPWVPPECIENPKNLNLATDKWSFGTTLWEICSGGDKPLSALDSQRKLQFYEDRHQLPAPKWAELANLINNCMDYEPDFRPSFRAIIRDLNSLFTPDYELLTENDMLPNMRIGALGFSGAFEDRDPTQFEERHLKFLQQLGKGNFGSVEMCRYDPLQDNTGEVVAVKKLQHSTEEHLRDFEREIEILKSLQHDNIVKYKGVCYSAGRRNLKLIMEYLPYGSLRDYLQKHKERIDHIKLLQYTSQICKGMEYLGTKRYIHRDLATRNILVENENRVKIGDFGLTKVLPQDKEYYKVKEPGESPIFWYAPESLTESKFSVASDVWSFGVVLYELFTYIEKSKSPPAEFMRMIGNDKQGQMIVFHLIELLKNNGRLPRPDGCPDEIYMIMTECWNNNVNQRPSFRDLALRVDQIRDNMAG
# Description: as §1
# [15] = molecular target: BRAF V599E (Homo sapiens (Human), UniProt P15056, V600E)
# Description: as §1
# [16] = molecular target: PIK3CG (p110 gamma) (Homo sapiens (Human), UniProt P48736)
# PIK3CG (p110 gamma), sequence (P48736 whole entry): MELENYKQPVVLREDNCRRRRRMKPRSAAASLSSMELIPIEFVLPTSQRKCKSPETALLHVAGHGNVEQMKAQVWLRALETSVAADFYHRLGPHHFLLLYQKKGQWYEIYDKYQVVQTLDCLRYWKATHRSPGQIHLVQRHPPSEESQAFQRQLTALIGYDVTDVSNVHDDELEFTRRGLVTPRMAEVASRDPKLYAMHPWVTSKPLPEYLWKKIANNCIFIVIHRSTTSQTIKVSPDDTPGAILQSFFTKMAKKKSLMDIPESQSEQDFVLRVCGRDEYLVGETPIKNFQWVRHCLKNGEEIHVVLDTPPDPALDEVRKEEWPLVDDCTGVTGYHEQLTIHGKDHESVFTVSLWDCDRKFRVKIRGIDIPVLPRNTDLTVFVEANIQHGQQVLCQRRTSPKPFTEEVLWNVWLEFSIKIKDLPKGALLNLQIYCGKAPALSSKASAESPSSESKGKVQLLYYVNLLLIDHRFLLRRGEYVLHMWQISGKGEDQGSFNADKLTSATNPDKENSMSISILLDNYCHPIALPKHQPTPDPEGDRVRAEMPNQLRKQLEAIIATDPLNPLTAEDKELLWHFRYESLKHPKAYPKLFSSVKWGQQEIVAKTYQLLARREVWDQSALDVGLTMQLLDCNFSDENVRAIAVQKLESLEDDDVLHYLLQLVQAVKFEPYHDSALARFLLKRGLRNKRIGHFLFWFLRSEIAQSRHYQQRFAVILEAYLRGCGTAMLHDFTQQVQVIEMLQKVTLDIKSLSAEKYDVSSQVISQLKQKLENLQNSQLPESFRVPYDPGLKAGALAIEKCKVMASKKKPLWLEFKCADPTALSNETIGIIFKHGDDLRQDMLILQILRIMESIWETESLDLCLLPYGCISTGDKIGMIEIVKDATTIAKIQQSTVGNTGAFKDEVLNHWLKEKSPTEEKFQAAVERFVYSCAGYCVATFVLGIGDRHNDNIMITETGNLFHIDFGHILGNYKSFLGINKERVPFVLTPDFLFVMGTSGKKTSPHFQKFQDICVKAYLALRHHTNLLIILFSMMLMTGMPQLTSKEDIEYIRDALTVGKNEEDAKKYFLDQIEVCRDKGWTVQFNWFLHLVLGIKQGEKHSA
# Description: as §1
# [17] = molecular target: ERBB4 (HER4) (Homo sapiens (Human), UniProt Q15303)
# Description: as §1
# [18] = molecular target: LYN A (Homo sapiens (Human), UniProt P07948)
# LYN A, sequence (P07948 whole entry): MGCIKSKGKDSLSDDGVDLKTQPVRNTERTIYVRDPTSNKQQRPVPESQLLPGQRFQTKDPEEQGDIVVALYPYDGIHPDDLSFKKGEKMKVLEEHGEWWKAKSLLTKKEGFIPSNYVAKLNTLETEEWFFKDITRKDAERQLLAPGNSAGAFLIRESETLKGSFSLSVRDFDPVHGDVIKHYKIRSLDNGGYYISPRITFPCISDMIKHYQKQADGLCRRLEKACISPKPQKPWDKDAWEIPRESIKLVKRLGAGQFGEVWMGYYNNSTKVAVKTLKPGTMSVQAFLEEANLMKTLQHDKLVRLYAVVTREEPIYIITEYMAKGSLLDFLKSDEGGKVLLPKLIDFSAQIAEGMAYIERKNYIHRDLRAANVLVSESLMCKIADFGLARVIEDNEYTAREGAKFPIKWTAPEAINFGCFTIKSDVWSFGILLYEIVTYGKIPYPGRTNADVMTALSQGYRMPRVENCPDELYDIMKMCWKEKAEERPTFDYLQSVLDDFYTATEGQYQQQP
# Description: as §1
# [19] = molecular target: MAP4K4 (HGK) (Homo sapiens (Human), UniProt O95819)
# Description: as §1
# [20] = molecular target: FLT4 (VEGFR3) (Homo sapiens (Human), UniProt P35916)
# Description: as §1
# [21] = molecular target: NTRK1 (TRKA) (Homo sapiens (Human), UniProt P04629)
# Description: as §1
# [22] = molecular target: PAK4 (Homo sapiens (Human), UniProt O96013)
# Description: as §1
# [23] = molecular target: RAF1 (cRAF) Y340D Y341D (Homo sapiens (Human), UniProt P04049, Y340D/Y341D)
# Description: as §1
# [24] = molecular target: CDK7/cyclin H/MNAT1 (Homo sapiens (Human), UniProt P50613)
# CDK7/cyclin H/MNAT1, sequence (P50613 whole entry): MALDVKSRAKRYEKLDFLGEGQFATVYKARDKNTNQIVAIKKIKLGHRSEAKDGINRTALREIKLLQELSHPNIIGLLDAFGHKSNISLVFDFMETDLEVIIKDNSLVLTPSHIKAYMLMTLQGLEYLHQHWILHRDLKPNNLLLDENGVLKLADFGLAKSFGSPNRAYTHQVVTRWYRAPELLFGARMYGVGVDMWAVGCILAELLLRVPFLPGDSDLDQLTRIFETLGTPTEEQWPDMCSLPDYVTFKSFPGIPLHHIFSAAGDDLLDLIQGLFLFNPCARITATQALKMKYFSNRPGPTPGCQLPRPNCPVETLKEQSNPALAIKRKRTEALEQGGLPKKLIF
# CDK7/cyclin H/MNAT1, sequence (P51946 whole entry partner): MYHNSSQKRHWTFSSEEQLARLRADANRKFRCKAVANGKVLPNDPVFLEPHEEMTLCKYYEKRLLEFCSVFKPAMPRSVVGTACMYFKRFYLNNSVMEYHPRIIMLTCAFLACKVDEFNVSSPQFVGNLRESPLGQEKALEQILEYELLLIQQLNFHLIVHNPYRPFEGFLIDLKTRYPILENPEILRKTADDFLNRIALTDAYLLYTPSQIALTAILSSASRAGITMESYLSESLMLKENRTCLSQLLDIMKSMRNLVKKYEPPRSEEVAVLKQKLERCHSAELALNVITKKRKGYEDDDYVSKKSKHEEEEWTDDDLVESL
# CDK7/cyclin H/MNAT1, sequence (P51948 whole entry partner): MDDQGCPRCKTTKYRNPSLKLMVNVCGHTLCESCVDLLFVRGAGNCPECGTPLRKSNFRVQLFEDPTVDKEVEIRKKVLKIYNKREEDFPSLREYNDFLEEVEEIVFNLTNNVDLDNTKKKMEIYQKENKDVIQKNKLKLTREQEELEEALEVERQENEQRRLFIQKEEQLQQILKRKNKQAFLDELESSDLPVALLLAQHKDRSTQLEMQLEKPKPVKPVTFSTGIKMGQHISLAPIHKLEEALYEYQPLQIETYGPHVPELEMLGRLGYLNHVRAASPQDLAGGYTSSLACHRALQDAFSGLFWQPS
# Description: as §1
# [25] = molecular target: TEK (Tie2) (Homo sapiens (Human), UniProt Q02763)
# Description: as §1
# [26] = molecular target: SYK (Homo sapiens (Human), UniProt P43405)
# Description: as §1
# [27] = molecular target: RPS6KB1 (p70S6K) (Homo sapiens (Human), UniProt P23443); settings: for inhibition at 10 µM: RPS6KB1 (p70S6K)
# RPS6KB1 (p70S6K), sequence (P23443 whole entry): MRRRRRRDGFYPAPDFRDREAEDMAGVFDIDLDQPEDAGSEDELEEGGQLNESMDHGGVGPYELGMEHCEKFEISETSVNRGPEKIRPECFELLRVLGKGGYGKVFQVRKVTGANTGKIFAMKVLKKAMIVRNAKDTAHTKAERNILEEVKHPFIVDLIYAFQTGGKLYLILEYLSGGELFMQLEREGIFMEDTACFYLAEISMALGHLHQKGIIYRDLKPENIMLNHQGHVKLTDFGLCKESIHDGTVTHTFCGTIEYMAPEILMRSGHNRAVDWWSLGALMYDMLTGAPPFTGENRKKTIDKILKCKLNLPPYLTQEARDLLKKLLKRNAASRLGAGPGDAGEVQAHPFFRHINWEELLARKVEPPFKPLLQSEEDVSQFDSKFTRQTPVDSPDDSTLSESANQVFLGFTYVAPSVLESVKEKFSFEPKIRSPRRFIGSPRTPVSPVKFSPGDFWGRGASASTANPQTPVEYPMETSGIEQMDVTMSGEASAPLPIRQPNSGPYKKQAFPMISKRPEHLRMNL
# Description: as §1
# RJ1 was taken as the lead structure for the synthesis of several diamide and monoamide derivatives of 4,6-diaminoisoindolin-1,3-dione.
compound,measurement,setting,value
"Nc1cc(N)c2c(c1)C(=O)NC2=O [RJ1, 4,6-diaminoisoindoline-1,3-dione]",inhibition at 10 µM,[1]; read-out: % Inhibition,9%
same,inhibition at 10 µM,[1]; read-out: % Inhibition class,< 40%
same,inhibition at 10 µM,[2]; read-out: % Inhibition,10%
same,inhibition at 10 µM,[2]; read-out: % Inhibition class,< 40%
same,inhibition at 10 µM,[3]; read-out: % Inhibition,-20%
same,inhibition at 10 µM,[3]; read-out: % Inhibition class,< 40%
same,inhibition at 10 µM,[4]; read-out: % Inhibition,29%
same,inhibition at 10 µM,[4]; read-out: % Inhibition class,< 40%
same,inhibition at 10 µM,[5]; read-out: % Inhibition,23%
same,inhibition at 10 µM,[5]; read-out: % Inhibition class,< 40%
same,inhibition at 10 µM,[6]; read-out: % Inhibition,19%
same,inhibition at 10 µM,[6]; read-out: % Inhibition class,< 40%
same,inhibition at 10 µM,[7]; read-out: % Inhibition,35%
same,inhibition at 10 µM,[7]; read-out: % Inhibition class,< 40%
same,inhibition at 10 µM,[8]; read-out: % Inhibition,72%
same,inhibition at 10 µM,[8]; read-out: % Inhibition class,40 to 80%
same,inhibition at 10 µM,[9]; read-out: % Inhibition,43%
same,inhibition at 10 µM,[9]; read-out: % Inhibition class,40 to 80%
same,inhibition at 10 µM,[10]; read-out: % Inhibition,33%
same,inhibition at 10 µM,[10]; read-out: % Inhibition class,< 40%
same,inhibition at 10 µM,[11]; read-out: % Inhibition,9%
same,inhibition at 10 µM,[11]; read-out: % Inhibition class,< 40%
same,inhibition at 10 µM,[12]; read-out: % Inhibition,6%
same,inhibition at 10 µM,[12]; read-out: % Inhibition class,< 40%
same,inhibition at 10 µM,[13]; read-out: % Inhibition,7%
same,inhibition at 10 µM,[13]; read-out: % Inhibition class,< 40%
same,inhibition at 10 µM,[14]; read-out: % Inhibition,22%
same,inhibition at 10 µM,[14]; read-out: % Inhibition class,< 40%
same,inhibition at 10 µM,[15]; read-out: % Inhibition,22%
same,inhibition at 10 µM,[15]; read-out: % Inhibition class,< 40%
same,% Inhibition,[16]; 10 μM,11%
same,inhibition at 10 µM,[16]; read-out: % Inhibition,12%
same,inhibition at 10 µM,[16]; read-out: % Inhibition class,< 40%
same,inhibition at 10 µM,[17]; read-out: % Inhibition,25%
same,inhibition at 10 µM,[17]; read-out: % Inhibition class,< 40%
same,inhibition at 10 µM,[18]; read-out: % Inhibition,12%
same,inhibition at 10 µM,[18]; read-out: % Inhibition class,< 40%
same,inhibition at 10 µM,[19]; read-out: % Inhibition,66%
same,inhibition at 10 µM,[19]; read-out: % Inhibition class,40 to 80%
same,inhibition at 10 µM,[20]; read-out: % Inhibition,55%
same,inhibition at 10 µM,[20]; read-out: % Inhibition class,40 to 80%
same,inhibition at 10 µM,[21]; read-out: % Inhibition,5%
same,inhibition at 10 µM,[21]; read-out: % Inhibition class,< 40%
same,inhibition at 10 µM,[22]; read-out: % Inhibition,29%
same,inhibition at 10 µM,[22]; read-out: % Inhibition class,< 40%
same,inhibition at 10 µM,[23]; read-out: % Inhibition,6%
same,inhibition at 10 µM,[23]; read-out: % Inhibition class,< 40%
same,% Inhibition,[24]; 10 μM,1% and −1%
same,inhibition at 10 µM,[24]; read-out: % Inhibition class,< 40%
same,inhibition at 10 µM,[25]; read-out: % Inhibition,20%
same,inhibition at 10 µM,[25]; read-out: % Inhibition class,< 40%
same,inhibition at 10 µM,[26]; read-out: % Inhibition,39%
same,inhibition at 10 µM,[26]; read-out: % Inhibition class,< 40%
same,inhibition at 10 µM,[27]; read-out: % Inhibition,80%
same,inhibition at 10 µM,[27]; read-out: % Inhibition class,≥ 80%
same,selectivity against a panel of 120 disease relevant kinases,[27]; SelectScreen panel,RPS6K1-selective inhibitor
